In brackets after ≈: the same amount, converted by molar mass. Activity calls are given as the source filed them. The rule behind the calls is not given here. Numbered stars: 1 amine (or outer) side, 2 acyl side, 3 side chain; on linkers, the order of the positions; unused ones are H or OH. Square brackets hold non-standard residues; d marks the D form. Peptide text beside a SMILES is read from it. X1 = O=C(/C(=C/c1cccnc1)N[*:1])[*:2]; X2 = O=C(/C(=C/c1ccccc1)N[*:1])[*:2]; Orn = NCCC[C@H](N)C(=O)O
Assays:
Escherichia coli = experiment: Antimicrobial activity against Escherichia coli K12 W3110 by liquid broth method; format: functional
Staphylococcus aureus = experiment: Antimicrobial activity against Staphylococcus aureus 209P by liquid broth method; format: functional
Erythrocyte = experiment: Induction of human erythrocyte hemolysis; format: functional, cell-based

| SMILES | MIC (Escherichia coli) | MIC (Staphylococcus aureus) | Activity (Erythrocyte) |
| --- | --- | --- | --- |
| CC(C)C[C@@H]1NC(=O)[C@H](CCCN)NC(=O)[C@H](C(C)C)NC(=O)[C@@H]2CCCN2C(=O)[C@@H](Cc2cccnc2)NC(=O)[C@H](CC(C)C)NC(=O)[C@H](CCCN)NC(=O)[C@H](C(C)C)NC(=O)[C@@H]2CCCN2C(=O)[C@@H](Cc2cccnc2)NC1=O | 64 µg/mL (≈ 56 µM) | 64 µg/mL (≈ 56 µM) | inactive |
| CC(C)C[C@@H]1NC(=O)[C@H](CCCN)NC(=O)[C@H](C(C)C)NC(=O)[C@@H]2CCCN2C(=O)/C(=C/c2cccnc2)NC(=O)[C@H](CC(C)C)NC(=O)[C@H](CCCN)NC(=O)[C@H](C(C)C)NC(=O)[C@@H]2CCCN2C(=O)/C(=C/c2cccnc2)NC1=O (cyclo(L[X1]PV[Orn]L[X1]PV[Orn])) | 32 µg/mL (≈ 28.1 µM) | 8 µg/mL (≈ 7.02 µM) |  |
| CC(C)C[C@@H]1NC(=O)[C@H](CCCN)NC(=O)[C@H](C(C)C)NC(=O)[C@@H]2CCCN2C(=O)/C(=C/c2ccccc2)NC(=O)[C@H](CC(C)C)NC(=O)[C@H](CCCN)NC(=O)[C@H](C(C)C)NC(=O)[C@@H]2CCCN2C(=O)/C(=C/c2cccnc2)NC1=O (cyclo(L[X2]PV[Orn]L[X1]PV[Orn])) | 32 µg/mL (≈ 28.1 µM) | 4 µg/mL (≈ 3.51 µM) |  |
| CC(C)C[C@@H]1NC(=O)[C@H](CCCN)NC(=O)[C@H](C(C)C)NC(=O)[C@@H]2CCCN2C(=O)/C(=C/c2ccccc2)NC(=O)[C@H](CC(C)C)NC(=O)[C@H](CCCN)NC(=O)[C@H](C(C)C)NC(=O)[C@@H]2CCCN2C(=O)/C(=C/c2ccccc2)NC1=O (cyclo(L[X2]PV[Orn]L[X2]PV[Orn])) | 32 µg/mL (≈ 28.1 µM) | 4 µg/mL (≈ 3.52 µM) |  |
| CC(C)C[C@@H]1NC(=O)[C@H](CCCN)NC(=O)[C@H](C(C)C)NC(=O)[C@@H]2CCCN2C(=O)[C@@H](Cc2ccc(O)cc2)NC(=O)[C@H](CC(C)C)NC(=O)[C@H](CCCN)NC(=O)[C@H](C(C)C)NC(=O)[C@@H]2CCCN2C(=O)[C@@H](Cc2ccc(O)cc2)NC1=O (cyclo(L[dY]PV[Orn]L[dY]PV[Orn])) | 32 µg/mL (≈ 27.3 µM) | 4 µg/mL (≈ 3.41 µM) |  |
| CC(C)C[C@@H]1NC(=O)[C@H](CCCN)NC(=O)[C@H](C(C)C)NC(=O)[C@@H]2CCCN2C(=O)[C@@H](Cc2ccccc2)NC(=O)[C@H](CC(C)C)NC(=O)[C@H](CCCN)NC(=O)[C@H](C(C)C)NC(=O)[C@@H]2CCCN2C(=O)[C@@H](Cc2ccccc2)NC1=O [GRAMICIDIN S] (cyclo(L[dF]PV[Orn]L[dF]PV[Orn])) | 16 µg/mL (≈ 14 µM) | 4 µg/mL (≈ 3.5 µM) |  |

From ChEMBL document CHEMBL1138223, “Synthesis of low-hemolytic antimicrobial dehydropeptides based on gramicidin s” (2006)
